# Experimental data reported in US20240360060A1, “6-HYDROXY-CANNABIDIOL-C4” (GW RESEARCH LIMITED, priority 2021, published 2024).
# Where “and” joins values, the source holds several entries; their conditions need not be identical. Identical values can stand only once. Like-named read-outs stand apart in the source and are kept apart here.
# How the values were obtained:
# [1] = Bioanalysis of Compound I in plasma and brain (UPLC-MS/MS); type: in vivo, mice; conditions: 150 mg/kg i.p., 30 min post-dose, mouse; for concentration at 30 min: ip, 150 mg/kg
# Method: Each animal was humanely killed immediately after production of a convulsion by destruction of the brain from striking the cranium, followed by the confirmation of permanent cessation of the circulation from decapitation under The Humane Killing of Animals under Schedule 1 to the Animals (Scientific Procedures) Act 1986. Terminal blood and brain collection were performed following decapitation.
# Blood was collected in Lithium-heparin tubes and centrifuged at 4° C. for 10 minutes at 1500×g. The resulting plasma was removed (>100 μL) and split into 2 aliquots of 0.5 mL Eppendorf tubes containing 10 μL of ascorbic acid (100 mg/mL) for stabilisation. Brains were removed, washed in saline and halved. Each half was placed into separate 2 mL screw cap cryovials, weighed and frozen on cardice.
# Bioanalysis experiments were carried out to determine the quantitative measurement of Compound I in plasma and brain.
# Six mice were dosed with Compound I at 150 mg/kg via intraperitoneal (i.p) injection. Sample analysis was performed 30 min post-dose using a sample volume of 40 μL. Following addition of internal standard (in acetonitrile) and Isopropanol samples were protein precipitated by addition of acetonitrile. Samples were centrifuged and supernatant transferred to a clean 96-well plate (with addition of Tween to minimise non-specific binding to plate materials), evaporated to dryness then reconstituted in suitable solvent. The extracts quantified by ultraperformance liquid chromatography-tandem mass spectromtry (UPLC-MS/MS).
# [2] = test system: mouse model of generalised seizure (tonic hind limb extensor convulsions); experiment: mini-MEST (maximal electroshock seizure threshold) test in the mouse; conditions: 30 min post dose
# Method: The maximal electroshock seizure threshold (MEST) test is widely utilized preclinically to evaluate pro- or anti-convulsant properties of test compounds (Loscher et al., 1991).
# In the MEST test the ability of a drug to alter the seizure threshold current required to induce hind limb tonic extensor convulsions is measured according to an “up and down” method of shock titration (Kimball et al., 1957). An increase in seizure threshold is indicative of anti-convulsant effect.
# The ability of a test compound to alter the stimulus intensity, expressed as current (mA), required to induce the presence of tonic hind limb extensor convulsions, is assessed in the MEST.
# Naïve mice were acclimatized to the procedure room in their home cages for up to 7 days, with food and water available ad libitum.
# All animals were weighed at the beginning of the study and randomly assigned to treatment groups based on a mean distribution of body weight across groups.
# The first animal within a treatment group was given a shock at the expected or estimated CC50 current. For subsequent animals, the current was lowered or raised depending on the convulsions outcome from the preceding animal in log scale intervals.
# Data generated from each treatment group were used to calculate the CC50±SEM values for the treatment group.
# The test compound, described herein as Compound I, are as shown as Formula I. Test compound was administered at 150 mg/kg (i.p.) in a 1:2:17 ethanol:solutol:0.9% saline formulation.
# The data for each treatment group were recorded as the number of +'s and 0's at each current level employed and this information is then used to calculate the CC50 value (current required for 50% of the animals to show seizure behaviour)±standard error.
# Test compound effects were also calculated as percentage change in CC50 from the vehicle control group.
# Significant difference between drug-treated animals and controls were assessed according to Litchfield and Wilcoxon (1949).
# [3] = test system: MES model of generalised seizure; conditions: earlier filing WO 2020/104796; cited from earlier work
structure (smiles),measurement,setting,value
"C=C(C)[C@@H]1C[C@H](O)C(C)=C[C@H]1c1c(O)cc(CCCC)cc1O [Compound I, (1′R,2′R,4′S)-4-butyl-5′-methyl-2′-(prop-1-en-2-yl)-1′,2′,3′,4′-tetrahydro-[1,1′-biphenyl]-2,4′,6-triol]",Conc. in brain (individual animals; head: Plasma Conc.),[1]; brain,17.696 µM and 200.472 µM and 183.889 µM and 173.842 µM and 212.516 µM and 228.344 µM
same,concentration at 30 min,"[1]; brain, brain, n=6, read-out: Mean conc. in brain (head: Mean Plasma Conc.)",169 µM
same,concentration at 30 min,"[1]; plasma, plasma, n=6, read-out: Mean Plasma Conc.",255 µM
same,Plasma Conc. (individual animals),[1]; plasma,379.642 µM and 242.369 µM and 47.322 µM and 295.516 µM and 268.44 µM and 299.404 µM
same,tonic hind limb convulsions in treatment group,"[2]; 150 mg/kg i.p., 6 animals",did not have any convulsions
same,CC50 +/- SEM (current required for 50% of the animals to show seizure behaviour),"[2]; 150 mg/kg i.p., N=6",>131 mA
"CN1C(=O)CN=C(c2ccccc2)c2cc(Cl)ccc21 [Diazepam, diazepam, reference compound]",% change from vehicle (CC50),[2]; 2.5 mg/kg i.p.,291%
"C=C(C)[C@@H]1CCC(C)=C[C@H]1c1c(O)cc(CCCC)cc1O [CBD-C4, Cannabidiol-C4]",anti-convulsant activity,[3],Therapeutic efficacy was shown
